Measurements published in article PMC12396409, “Screening and hit evaluation of a microbial metabolite library against the pathogenic Plasmodium falciparum and Toxoplasma gondii parasites” (International Journal for Parasitology: Drugs and Drug …, 2025).
Like-named read-outs stand apart in the source and are kept apart here.

Experiments:
[1] = system: T. gondii RH strain (RH-Tub-eYFP) tachyzoites; experiment: microbe, parasite or virus in culture; format: cell-based, Toxoplasma gondii
[2] = system: P. falciparum 3D7 parasites; experiment: P. falciparum growth inhibition assay, 1-cycle (72 h treatment), SYBR DNA staining (library screen at 2 μg/mL and dose-response); format: cell-based, Plasmodium falciparum; conditions: for activity at 2 µg/mL: Plasmodium falciparum, 3D7
[3] = system: P. falciparum 3D7 parasites; experiment: P. falciparum growth inhibition assay, 2-cycle (120 h treatment), delayed-death screen and dose-response; format: cell-based, Plasmodium falciparum; conditions: for activity at 2 µg/mL: Plasmodium falciparum, 3D7
[4] = library screen at 2 μg/mL, 72 h, % growth, replicate 1
[5] = library screen at 2 μg/mL, 72 h, % growth, replicate 2
[6] = library screen at 2 μg/mL, 120 h, % growth, replicate 1
[7] = library screen at 2 μg/mL, 120 h, % growth, replicate 2
[8] = T. gondii, 72 h, screen at 2 μg/mL, replicate 1
[9] = T. gondii, 72 h, screen at 2 μg/mL, replicate 2
[10] = P. falciparum, 72 h, screen at 2 μg/mL, replicate 1
[11] = P. falciparum, 72 h, screen at 2 μg/mL, replicate 2
[12] = P. falciparum, 120 h, screen at 2 μg/mL, replicate 1
[13] = P. falciparum, 120 h, screen at 2 μg/mL, replicate 2
[14] = library screen at 2 μg/mL, 72 h, % growth, replicate 1, read-out: Pf_72h_%Growth_Rep1
[15] = library screen at 2 μg/mL, 72 h, % growth, replicate 2, read-out: Pf_72h_%Growth_Rep2
[16] = library screen at 2 μg/mL, 120 h, % growth, replicate 1, read-out: Pf_120h_%Growth_Rep1
[17] = library screen at 2 μg/mL, 120 h, % growth, replicate 2, read-out: Pf_120h_%Growth_Rep2

| SMILES | Tg_72h_%Growth_Rep1 [1, 4] | Tg_72h_%Growth_Rep2 [1, 5] | Pf_72h_%Growth_Rep1 [2, 4] | Pf_72h_%Growth_Rep2 [2, 5] | Pf_120h_%Growth_Rep1 [3, 6] | Pf_120h_%Growth_Rep2 [3, 7] | Tg_72h_%Growth_Rep1 [1, 8] | Tg_72h_%Growth_Rep2 [1, 9] | Pf_72h_%Growth_Rep1 [2, 10] | Pf_72h_%Growth_Rep2 [2, 11] | Pf_120h_%Growth_Rep1 [3, 12] | Pf_120h_%Growth_Rep2 [3, 13] | also measured |
| --- | --- | --- | --- | --- | --- | --- | --- | --- | --- | --- | --- | --- | --- |
| O=C(O)C1CSC(c2ccccc2O)=N1 (stereo not drawn) [Dihydroaeruginoic acid] | 51.46% | 84.93% | 74.36% | 72.53% | 53.55% | 57.05% |  |  |  |  |  |  |  |
| C=C[C@@H](CO)[C@H]1CCN2CCc3c([nH]c4ccccc34)[C@@H]2C1 [Anthirine] | 43.71% | 53.47% | 73.25% | 82.22% | 66.95% | 48.16% |  |  |  |  |  |  |  |
| CN1C(=O)c2ccccc2-n2c(nc3ccccc3c2=O)[C@@]12O[C@H]2c1ccccc1 [Benzomalvin C] | 89.14% | 100.15% | 80.29% | 84.20% | 69.94% | 71.59% |  |  |  |  |  |  |  |
| C=C[C@@](C)(CCC=C(C)C)c1ccc2c3c(c[nH]c13)C[C@@H](CO)NC(=O)[C@H](C(C)C)N2C [Teleocidin A1] |  |  |  |  |  |  | 75.89% | 83.10% | 6.74% | -5.43% | 8.14% | 11.61% |  |
| Cc1cc(O)cc2oc(=O)c3c(O)cc(O)cc3c12 [Alternariol] |  |  |  |  |  |  |  |  |  |  |  |  | percent parasite growth at 2 µg/mL ([1]; Toxoplasma gondii; library screen at 2 μg/mL, 72 h, % growth, replicate 1; read-out: Tg_72h_%Growth_Rep1): 37.5%; percent parasite growth at 2 µg/mL ([1]; Toxoplasma gondii; library screen at 2 μg/mL, 72 h, % growth, replicate 2; read-out: Tg_72h_%Growth_Rep2): 99.9%; activity at 2 µg/mL [2, 14]: 84.6%; activity at 2 µg/mL [2, 15]: 91.2%; activity at 2 µg/mL [3, 16]: 171%; activity at 2 µg/mL [3, 17]: 90.2% |
| O=c1c(-c2ccc(O)cc2)coc2cc(O)cc(O)c12 [Genistein] |  |  |  |  |  |  |  |  |  |  |  |  | percent parasite growth at 2 µg/mL ([1]; Toxoplasma gondii, 72 h, library screen at 2 μg/mL, 72 h, % growth, replicate 1; read-out: Tg_72h_%Growth_Rep1): 80.3%; percent parasite growth at 2 µg/mL ([1]; Toxoplasma gondii, 72 h, library screen at 2 μg/mL, 72 h, % growth, replicate 2; read-out: Tg_72h_%Growth_Rep2): 72.4%; activity at 2 µg/mL [2, 14]: 88.5%; activity at 2 µg/mL [2, 15]: 42.1%; activity at 2 µg/mL [3, 16]: 89.5%; activity at 2 µg/mL [3, 17]: 111% |
| C=CCNC1=C2C[C@@H](C)C[C@H](OC)[C@H](O)[C@@H](C)/C=C(\C)[C@H](OC(N)=O)[C@@H](OC)/C=C\C=C(/C)C(=O)NC(=CC1=O)C2=O [Allylamino-17-demethoxygeldanamycin, 17-] | -1.02% | -0.21% | 14.05% | 5.13% | 19.67% | 7.18% |  |  |  |  |  |  |  |
| O=C(O)c1cccc2nc3ccccc3nc12 [Tubermycin B] |  |  |  |  |  |  | 87.24% | 96.39% | 44.49% | 34.95% | 88.83% | 26.83% |  |
| CC[C@H]1C[C@@H]2CC[C@@H](O2)[C@@H](C)C(=O)O[C@H](CC)C[C@H]2CC[C@H](O2)[C@H](C)C(=O)O[C@@H](CC)C[C@@H]2CC[C@@H](O2)[C@@H](C)C(=O)O[C@H](CC)C[C@H]2CC[C@H](O2)[C@H](C)C(=O)O1 [Tetranactin] |  |  |  |  |  |  | 5.41% | 2.84% | 6.09% | -9.23% | 29.81% | 14.39% |  |
| COc1cc(O)c2c(c1)/C=C/C[C@H](O)[C@H](O)C(=O)/C=C/C[C@H](C)OC2=O [BIA-O1897] |  |  |  |  |  |  |  |  |  |  |  |  | Tg_72h_%Growth_Rep1 ([1]; T. gondii, 72 h, parasite screen at 2 μg/mL, % growth, replicate 1): 58.83%; Tg_72h_%Growth_Rep2 ([1]; T. gondii, 72 h, parasite screen at 2 μg/mL, % growth, replicate 2): 79.20%; Pf_72h_%Growth_Rep1 ([2]; P. falciparum 3D7, 72 h, parasite screen at 2 μg/mL, % growth, replicate 1): 68.65%; Pf_72h_%Growth_Rep2 ([2]; P. falciparum 3D7, 72 h, parasite screen at 2 μg/mL, % growth, replicate 2): 68.31%; Pf_120h_%Growth_Rep1 ([3]; P. falciparum 3D7, 120 h, parasite screen at 2 μg/mL, % growth, replicate 1): 71.81%; Pf_120h_%Growth_Rep2 ([3]; P. falciparum 3D7, 120 h, parasite screen at 2 μg/mL, % growth, replicate 2): 72.01% |
